Patent publication US11974987B2, “Monoacylglycerol lipase modulators for use in autism spectrum disorders” (Janssen Pharmaceutica NV, priority 2021, dated 2024)
Like-named read-outs stand apart in the source and are kept apart here. Values belong to the molecule of their own block, whether it stands above or below them.

Legend:
[1] = molecular target: human MGL from HeLa cells (Homo sapiens (Human), UniProt Q99685); test: in vitro MGL activity assay ([glycerol-1,3-3H]-oleoyl glycerol cleavage); format: biochemical
Procedure: The assay consists of combining endogenously expressed MGL from HeLa cells with test compounds, adding [glycerol-1,3-^3H]-oleoyl glycerol, incubating for one hour, and then measuring the amount of cleaved [1,3-^3H]-glycerol that passes through an activated carbon filter. The amount of cleaved, tritiated glycerol passing through the carbon filter is proportional to the activity of the MGL enzyme in a particular well/test condition.
Standard conditions for this assay combine 300 nM [Glycerol-1,3-^3H]-oleoyl glycerol with human MGL from HeLa cells and test compounds for one hour, after which the reaction is filtered through activated carbon and tritium is measured in the flow through. […] MGL is the predominant hydrolase in HeLa cells/cell homogenates.

C57BL/6J mice = test: Three-chamber sociability test in C57BL/6J mice (control); format: in vivo, mouse; conditions: C57BL/6 mice, 3 mg/kg p.o., 60 minutes before testing
Procedure: (§1) Biological Example 3. The behavioral effects of the compound of Example 78 were evaluated using an animal model of autism in a sociability assay after administration of the compound. The sociability assay was conducted using C57BL/6J mice (commerically available from the Jackon Laboratory, Bar Harbor, ME) as control, and BTBR T^+ Itpr3^tf/mice (referred herein as “BTBR”)(commerically available from the Jackon Laboratory, Bar Harbor, ME) as an autism model.
(§2) Thirty (30) C57BL/6J female mice and thirty (30) BTBR female mice (7-8 weeks old) were used in Biological Example 3. Upon arrival, mice were group-housed (4-5/cage) and acclimated for at least 5 days prior to commencing studies. Animals were maintained on a 12 hr light/dark cycle with room temperature maintained at 22±2° C. and approximately 50% humidity and had access to food and water ad libitum until the day before the experiment.
(§3) The two solutions listed in Table 4 were formulated fresh daily for p.o. administration. Both solutions comprise 20% 2-Hydroxypropyl-β-cyclodextrin (HP-3-CD). The solution containing Example 78 is in a concentration of 0.3 mg/mL.
(§4) Each type of mice is divided into two different treatment groups: those orally administered a Vehicle solution, and those orally administered with a solution of Example 78, both prepared according to Table 4 above. The mice were randomly assigned to treatment groups according to Table 5 below. Mice were administered the test article 60 minutes prior to testing.
(§5) Experiments were carried out in a gray plastic arena with two clear dividers creating three chambers (each 19 cm×45 cm). […] Two wire cup-like containers were placed in the corner of either end of the arena (right chamber and left chamber). These containers were used to house either stimulus or familiar mice. The arena was placed in a room with dim lighting (˜10 lux). Animals were brought into the room to acclimate for at least 1 hour prior to beginning experiment.
Initially, empty wire cups are placed into the right and left chambers. Each of the C57BL/6J or BTBR mouse was placed into the center chamber and allowed to habituate for 10 minutes to the arena. After the 10-minute habituation and with the animal still in the arena, a first stimulus mouse, which was subsequently considered a familiar mouse, was placed inside one of the wire cups in either the right or left chamber. In the other wire cup, a small object was placed. […]
During the latter 10-minute period, activity of each mouse was recorded and analyzed using the Noldus EthoVision™ software, which is a video tracking software that tracks and analyzes the behavior, movement. The following data were record and scored using activity of each mouse for: […]
Data were plotted and analyzed using GraphPad Prism (version 9.1.1) software. […]

BTBR mice = test: Three-chamber sociability test in BTBR mice (autism model); format: in vivo, mouse; conditions: 3 mg/kg p.o., 60 minutes before testing
Procedure: as §1
The BTBR mice used in Biological Example 3 was derived from the inbred strain BTBR (Black and Tan BRachyury) that carried the mutations a^t (nonagouti; black and tan), Itpr3^tf (inositol 1,4,5-triphosphate receptor 3; tufted), and T (brachyury). […] (Wahlsten D, 2003 Brain Res). […] (McFarlane H G, 2008, Gen, Brain Behav; Moy S S, 2007, Behav Br Res, Scattoni M L, 2008, PLos). This strain of mice contains the Trem2S148E allele—a naturally occurring variant at position 48351151-48351152 on Chr 17 (rs108080490 and rs107649577; Ensembl GRCm38.p6). This TC to GA transition results in a serine to glutamic acid substitution at amino acid 148 (S148E).
as §2, §3, §4, §5
Initially, empty wire cups are placed into the right and left chambers. Each of the C57BL/6J or BTBR mouse was placed into the center chamber and allowed to habituate for 10 minutes to the arena. After the 10-minute habituation and with the animal still in the arena, a first stimulus mouse, which was subsequently considered a familiar mouse, was placed inside one of the wire cups in either the right or left chamber. In the other wire cup, a small object was placed. The placement of the stimulus mouse and small object switched sides across subjects. The C57BL/6J or BTBR mouse was allowed 10 minutes to explore all three chambers. A second stimulus mouse was subsequently placed in the wire cup in the opposite chamber. The first stimulus mouse was considered as familiar mouse. Again, the C57BL/6J or BTBR mouse was allowed 10 minutes to explore all three chambers.
During the latter 10-minute period, activity of each mouse was recorded and analyzed using the Noldus EthoVision™ software, which is a video tracking software that tracks and analyzes the behavior, movement. The following data were record and scored using activity of each mouse for:
(1) Duration and number of direct/active contacts between the test mouse and both wire cups (stimulus vs. familiar); Active contact was defined as mouse stretching towards wire cup within a 3-5 mm area around the cup; and […]

[2] = 300 nM [Glycerol-1,3-3H]-oleoyl glycerol, one hour, read-out: MGL IC50

Chain of human MGL from HeLa cells (Q99685 whole entry): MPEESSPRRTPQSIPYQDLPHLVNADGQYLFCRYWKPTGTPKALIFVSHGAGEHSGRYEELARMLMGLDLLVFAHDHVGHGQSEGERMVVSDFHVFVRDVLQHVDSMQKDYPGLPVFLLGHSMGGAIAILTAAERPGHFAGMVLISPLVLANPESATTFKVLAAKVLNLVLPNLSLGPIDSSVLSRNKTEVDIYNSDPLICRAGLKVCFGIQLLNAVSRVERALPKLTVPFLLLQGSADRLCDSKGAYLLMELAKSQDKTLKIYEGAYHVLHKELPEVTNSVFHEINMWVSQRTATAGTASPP

SMILES: O=C1CC[C@]2(C[C@H](C(=O)N3CCC4(c5cccc(OC(F)(F)F)c5)CC4C3)C2)N1 (mixture of isomers) [Example 52, (rac)-(2r,4s)-2-(6-(3-(Trifluoromethoxy)phenyl)-3-azabicyclo[4.1.0]heptane-3-carbonyl)-5-azaspiro[3.4]octan-6-one]
IC50 [1]: 4.8 nM

SMILES: O=C1CC[C@]2(C[C@H](C(=O)N3CC[C@@]4(c5cccc(OC(F)(F)F)c5)C[C@H]4C3)C2)N1 (stereo in doubt) [Example 119, (2r,4*S)-2-((1*R,6*S)-6-(3-(Trifluoromethoxy)phenyl)-3-azabicyclo[4.1.0]heptane-3-carbonyl)-5-azaspiro[3.4]octan-6-one]
IC50 [1, 2]: 5.2 nM

SMILES: O=C1CC[C@]2(C[C@H](C(=O)N3CC[C@]4(c5cccc(OC(F)(F)F)c5)C[C@@H]4C3)C2)N1 (stereo in doubt) [Example 120, (2r,4*R)-2-((1*S,6*R)-6-(3-(Trifluoromethoxy)phenyl)-3-azabicyclo[4.1.0]heptane-3-carbonyl)-5-azaspiro[3.4]octan-6-one]
IC50 [1, 2]: 23 nM

SMILES: CC(C)(C)c1cccc([C@H]2[C@@H]3CN(C(=O)[C@H]4C[C@]5(COC(=O)N5)C4)C[C@@H]32)c1 [Example 78, (2s,4S)-2-((1R,5S,6S)-6-(3-(tert-Butyl)phenyl)-3-azabicyclo[3.1.0]hexane-3-carbonyl)-7-oxa-5-azaspiro[3.4]octan-6-one]
Mean Diff., amount of time spent exploring familiar mouse chamber and stimulus mouse chamber (Bonferroni's multiple comparisons test) (C57BL/6J mice): −23.01
Mean Diff., amount of time spent interacting with familiar mouse or stimulus mouse (Bonferroni's multiple comparisons test) (C57BL/6J mice): 2.873
Mean Diff., number of entries into familiar mouse chamber and stimulus mouse chamber (Bonferroni's multiple comparisons test) (C57BL/6J mice): 8.133
Mean Diff., number of interactions with familiar mouse or stimulus mouse (Bonferroni's multiple comparisons test) (C57BL/6J mice): 37.87
Mean Diff., amount of time spent exploring familiar mouse chamber and stimulus mouse chamber (Bonferroni's multiple comparisons test) (BTBR mice): −40.36
Mean Diff., amount of time spent interacting with familiar mouse or stimulus mouse (Bonferroni's multiple comparisons test) (BTBR mice): −5.578
Mean Diff., number of entries into familiar mouse chamber and stimulus mouse chamber (Bonferroni's multiple comparisons test) (BTBR mice): 4.133
Mean Diff., number of interactions with familiar mouse or stimulus mouse (Bonferroni's multiple comparisons test) (BTBR mice): −47.07
preference to familiar mouse over stimulus mouse (FIGS. 1C and 1D) (BTBR mice): did not show preference to familiar mouse over stimulus mouse
social interaction (interest in social novelty) as compared to BTBR mice treated with placebo (BTBR mice): improved social interaction

SMILES: CC(C)c1cccc([C@H]2[C@@H]3CN(C(=O)[C@H]4C[C@]5(COC(=O)N5)C4)C[C@@H]32)c1 [Example 84, (2s,4S)-2-((1R,5S,6S)-6-(3-Isopropylphenyl)-3-azabicyclo[3.1.0]hexane-3-carbonyl)-7-oxa-5-azaspiro[3.4]octan-6-one]
IC50 [1, 2]: 5.5 nM

Continued, values first:

IC50 [1, 2]: 10 nM
SMILES: O=C1CC[C@]2(C[C@H](C(=O)N3CCC4(c5ccc(OC(F)(F)F)cc5)CC4C3)C2)N1 (mixture of isomers) [Example 55, (rac)-(2r,4s)-2-(6-(4-(Trifluoromethoxy)phenyl)-3-azabicyclo[4.1.0]heptane-3-carbonyl)-5-azaspiro[3.4]octan-6-one]

IC50 [1, 2]: 18 nM
SMILES: O=C1CC[C@]2(C[C@H](C(=O)N3CCC4(c5ccc(C(F)(F)F)cc5)CC4C3)C2)N1 (mixture of isomers) [Example 59, (rac)-(2r,4s)-2-(6-(4-(Trifluoromethyl)phenyl)-3-azabicyclo[4.1.0]heptane-3-carbonyl)-5-azaspiro[3.4]octan-6-one]

IC50 [1, 2]: 2.8 nM
SMILES: Cc1cccc([C@]23CCN(C(=O)[C@H]4C[C@]5(COC(=O)N5)C4)C[C@H]2C3)c1 (relative stereo) [Example 44, (2s,4*R)-2-((1*S,6*R)-6-(m-Tolyl)-3-azabicyclo[4.1.0]heptane-3-carbonyl)-7-oxa-5-azaspiro[3.4]octan-6-one]

IC50 [1, 2]: 42 nM
SMILES: O=C1CC[C@]2(C[C@H](C(=O)N3CC[C@@]4(c5ccc(OC(F)(F)F)cc5)C[C@H]4C3)C2)N1 (stereo in doubt) [Example 121, (2r,4*S)-2-((1*R,6*S)-6-(4-(Trifluoromethoxy)phenyl)-3-azabicyclo[4.1.0]heptane-3-carbonyl)-5-azaspiro[3.4]octan-6-one]

IC50 [1, 2]: 12 nM
SMILES: O=C1CC[C@]2(C[C@H](C(=O)N3CC[C@]4(c5ccc(OC(F)(F)F)cc5)C[C@@H]4C3)C2)N1 (stereo in doubt) [Example 122, (2r,4*R)-2-((1*S,6*R)-6-(4-(Trifluoromethoxy)phenyl)-3-azabicyclo[4.1.0]heptane-3-carbonyl)-5-azaspiro[3.4]octan-6-one]
